Legend:
[1] = target: EGFR kinase (Homo sapiens, UniProt P00533); assay: Enzymatic experiment on EGFR (HTRF kinEASE-TK); type: biochemical; conditions: ATP 1.65 μM; read-out: Kinase IC50 (nM) in vitro EGFR
Procedure, shortened: (§1)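 HTRF kinEASE-TK with biotinylated TK substrate in HEPES pH 7.0 buffer containing MnCl2, MgCl2 and DTT; ErbB2 at 0.06 ng/μl with 4 μM ATP, EGFR at 0.06 units/μl with 1.65 μM ATP, 30 min at room temperature after 5 min enzyme/substrate–compound preincubation. Ten-point 3-fold dilutions; Eu antibody/SA-XL665 detection, 665/620 ratio.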

[2] = target: ErbB2 kinase (Homo sapiens, UniProt P04626); assay: Enzymatic experiment on ErbB2 (HTRF kinEASE-TK); type: biochemical; conditions: ATP 4 μM; read-out: Kinase IC50 (nM) in vitro ErbB2
Procedure, shortened: as §1

[3] = system: N87; assay: Proliferation inhibition assay in vitro, N87 (CellTiter-Glo); type: cell-based; conditions: Homo sapiens; 72 hours; read-out: IC50(nM) cell N87
Procedure, shortened: (§2)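 Cells were seeded at 8.8×10^4 cells/mL for BT-474 or 6.6×10^4 cells/mL for N87 and grown overnight. Compound was added at 9 concentrations in duplicate for 72 h at 37 °C, 5% CO2. Viability was measured by CellTiter-Glo.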

[4] = system: BT-474; assay: Proliferation inhibition assay in vitro, BT-474 (CellTiter-Glo); type: cell-based; conditions: Homo sapiens, 72 hours, read-out: IC50(nM) cell BT-474
Procedure, shortened: as §2

[5] = system: human breast cancer BT-474 xenograft; conditions: 50MPK (BID), oral, 20 days
[6] = system: human gastric cancer NCI-N87 xenograft; assay: HER2 overexpressing human gastric cancer NCI-N87 xenograft model in nude mice; type: in vivo, Balb/c nude mice; conditions: 50MPK (BID), oral, 22 days

Chain of EGFR kinase (P00533 25-1210): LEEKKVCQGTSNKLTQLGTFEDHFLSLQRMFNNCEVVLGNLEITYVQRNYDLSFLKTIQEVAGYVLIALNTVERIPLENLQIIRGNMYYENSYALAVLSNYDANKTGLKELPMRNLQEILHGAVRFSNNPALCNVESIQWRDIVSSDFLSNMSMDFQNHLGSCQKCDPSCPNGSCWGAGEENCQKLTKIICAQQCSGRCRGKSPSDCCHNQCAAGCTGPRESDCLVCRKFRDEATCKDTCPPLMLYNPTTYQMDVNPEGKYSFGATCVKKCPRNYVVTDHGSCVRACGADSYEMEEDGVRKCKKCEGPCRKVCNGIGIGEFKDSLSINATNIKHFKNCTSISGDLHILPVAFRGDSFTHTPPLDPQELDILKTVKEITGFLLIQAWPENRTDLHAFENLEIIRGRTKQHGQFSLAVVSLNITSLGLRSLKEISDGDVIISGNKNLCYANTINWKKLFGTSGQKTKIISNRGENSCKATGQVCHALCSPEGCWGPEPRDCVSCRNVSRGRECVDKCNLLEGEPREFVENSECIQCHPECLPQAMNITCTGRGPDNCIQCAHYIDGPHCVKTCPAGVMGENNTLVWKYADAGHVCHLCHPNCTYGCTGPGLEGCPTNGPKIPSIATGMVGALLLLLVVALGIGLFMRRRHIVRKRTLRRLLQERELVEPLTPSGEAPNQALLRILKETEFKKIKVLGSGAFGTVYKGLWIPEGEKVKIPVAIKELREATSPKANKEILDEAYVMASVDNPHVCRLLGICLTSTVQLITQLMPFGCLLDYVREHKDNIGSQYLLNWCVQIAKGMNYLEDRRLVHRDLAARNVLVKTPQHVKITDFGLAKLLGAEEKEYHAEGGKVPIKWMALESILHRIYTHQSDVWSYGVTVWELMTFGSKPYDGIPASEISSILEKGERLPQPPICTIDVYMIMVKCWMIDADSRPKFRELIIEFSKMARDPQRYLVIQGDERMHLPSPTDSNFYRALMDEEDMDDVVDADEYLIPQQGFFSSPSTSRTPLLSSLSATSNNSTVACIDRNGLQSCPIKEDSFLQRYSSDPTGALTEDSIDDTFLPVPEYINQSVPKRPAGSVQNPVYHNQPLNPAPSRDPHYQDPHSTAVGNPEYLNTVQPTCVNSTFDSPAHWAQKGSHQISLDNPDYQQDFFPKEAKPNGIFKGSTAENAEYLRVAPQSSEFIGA
Chain of ErbB2 kinase (P04626 23-1255): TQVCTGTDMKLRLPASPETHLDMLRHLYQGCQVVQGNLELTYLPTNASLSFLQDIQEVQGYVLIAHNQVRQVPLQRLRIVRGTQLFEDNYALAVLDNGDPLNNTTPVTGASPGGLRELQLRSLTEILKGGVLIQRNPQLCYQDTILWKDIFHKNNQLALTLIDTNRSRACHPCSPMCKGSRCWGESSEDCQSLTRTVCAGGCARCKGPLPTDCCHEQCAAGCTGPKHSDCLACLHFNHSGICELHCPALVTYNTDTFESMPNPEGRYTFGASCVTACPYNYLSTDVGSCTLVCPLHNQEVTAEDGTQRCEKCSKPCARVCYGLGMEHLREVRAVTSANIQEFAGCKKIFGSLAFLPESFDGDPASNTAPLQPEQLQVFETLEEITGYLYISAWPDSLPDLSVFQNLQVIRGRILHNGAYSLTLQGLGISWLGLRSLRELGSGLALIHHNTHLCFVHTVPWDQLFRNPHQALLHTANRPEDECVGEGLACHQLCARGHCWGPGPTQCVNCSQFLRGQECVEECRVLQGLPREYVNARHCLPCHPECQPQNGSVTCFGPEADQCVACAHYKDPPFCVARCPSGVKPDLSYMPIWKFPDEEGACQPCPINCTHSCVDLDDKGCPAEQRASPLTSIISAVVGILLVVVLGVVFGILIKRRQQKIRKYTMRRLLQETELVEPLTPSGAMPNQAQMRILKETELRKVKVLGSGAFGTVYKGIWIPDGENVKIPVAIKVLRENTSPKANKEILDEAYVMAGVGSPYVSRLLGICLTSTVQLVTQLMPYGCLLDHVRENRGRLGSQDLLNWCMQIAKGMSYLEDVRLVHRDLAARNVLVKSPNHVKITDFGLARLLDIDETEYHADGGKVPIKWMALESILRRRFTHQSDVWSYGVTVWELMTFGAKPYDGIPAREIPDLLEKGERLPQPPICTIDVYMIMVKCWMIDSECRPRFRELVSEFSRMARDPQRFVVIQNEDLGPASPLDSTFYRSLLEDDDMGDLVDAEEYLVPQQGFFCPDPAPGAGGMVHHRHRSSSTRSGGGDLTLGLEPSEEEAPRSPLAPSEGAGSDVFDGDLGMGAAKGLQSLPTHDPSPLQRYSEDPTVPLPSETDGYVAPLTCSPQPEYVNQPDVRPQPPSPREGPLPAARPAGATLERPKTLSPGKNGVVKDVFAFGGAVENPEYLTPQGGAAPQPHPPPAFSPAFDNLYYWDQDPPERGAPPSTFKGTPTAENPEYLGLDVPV

| Structure (SMILES) | IC50 [1] | IC50 [2] | IC50 [4] | IC50 [3] | tumor volume inhibition rate (GI %) [5] | tumor volume inhibition rate (GI %) [6] |
| --- | --- | --- | --- | --- | --- | --- |
| Cc1cc(Nc2ncnc3ccc(NC4=NC(C)(C)CO4)cc23)cc(C)c1Oc1cc2nncn2cn1 [Embodiment 126, N^4-(4-([1,2,4]triazolo[4,3-c]pyrimidin-7-yloxy)-3,5-dimethylphenyl)-N^6-(4,4-dimethyl-4,5-dihydrooxazol-2-yl)quinazolin-4,6-diamine] | 53 nM | 6.7 nM | 143 nM | 82.9 nM |  |  |
| CCC1COC(Nc2ccc3ncnc(Nc4ccc(Oc5cc6nncn6cn5)c(C)c4)c3c2)=N1 (stereo not drawn) [Embodiment 129, N^4-(4-([1,2,4]triazolo[4,3-c]pyrimidin-7-yloxy)-3-methylphenyl)-N^6-(4-ethyl-4,5-dihydrooxazol-2-yl)quinazolin-4,6-diamine] | 56.9 nM | 4.4 nM | 189 nM | 121 nM |  |  |
| CS(=O)(=O)CCNCc1ccc(-c2ccc3ncnc(Nc4ccc(OCc5cccc(F)c5)c(Cl)c4)c3c2)o1 [Lapatinib, reference compound] |  |  |  |  | 19.2% | 87.8% |

Now from value to compound, other results behind:

| IC50 [1] | IC50 [2] | IC50 [4] | Structure (SMILES) | IC50 [3] | tumor volume inhibition rate (GI %) [5] | tumor volume inhibition rate (GI %) [6] |
| --- | --- | --- | --- | --- | --- | --- |
| 6.6 nM | 5.6 nM | 8 nM | C=C(F)C(=O)Nc1cc2c(Nc3ccc(Oc4cc5nncn5cn4)c(C)c3)ncnc2cc1OCC [Embodiment 127, N-(4-((4-([1,2,4]triazolo[4,3-c]pyrimidin-7-yloxy)-3-methylphenyl)amino)-7-ethoxyquinazolin-6-yl)-2-fluoroacrylamide] | 30.7 nM |  |  |
| 28.7 nM | 14.8 nM | 484 nM | CC(=O)C(=O)Nc1ccc2ncnc(Nc3ccc(Oc4cc5nncn5cn4)c(C)c3)c2c1 [Embodiment 128, N-(4-((4-([1,2,4]triazolo[4,3-c]pyrimidin-7-yloxy)-3-methylphenyl)amino)quinazolin-6-yl)-2-oxopropionamide] | 868 nM |  |  |

Reference: patent US10828305B2 (SHANGHAI PHARMACEUTICALS HOLDING CO., LTD., priority 2016, dated 2020)
